The target of data set [1] is T1, E. coli GAR TFase (Escherichia coli, UniProt P08179).
T1 construct: made in house; host or cells: E. coli TX393 with multicopy plasmid pJS85, or E. coli TX635 with lambda pL plasmid pJS119 or pJS167
T1 sequence (P08179 1-212): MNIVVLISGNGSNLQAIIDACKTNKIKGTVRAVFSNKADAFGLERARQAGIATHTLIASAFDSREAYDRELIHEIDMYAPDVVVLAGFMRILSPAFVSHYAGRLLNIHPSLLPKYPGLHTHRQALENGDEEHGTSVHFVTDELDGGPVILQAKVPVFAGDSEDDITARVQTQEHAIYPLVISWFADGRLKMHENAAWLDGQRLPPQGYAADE
Kind of data set: Fluorescence titration, dissociation constant for E. coli GAR TFase. In kind it is binding. The method, then:
The thermodynamic dissociation constant, KD, for the E.β-TGDDF complex was measured by following the enhancement of the inhibitor's 395 nm fluorescence (excitation at 275 nm) upon binding to GAR TFase. A concentrated E. coli GAR TFase solution was added to an 11 nM solution of purified β-TGDDF; for each addition, the fluorescence at three different wavelengths (396, 400, and 405 nm) was measured. Fluorescence titration data was analyzed by the method of Taira and Benkovic, J. Med. Chem., 31, 129-137 (1988).
(§1) In analyzing the biological activity of the compounds of the present invention, GAR TFase from E. coli was used. This enzyme behaves like the mammalian and avian enzyme with respect to substrate specificity, yet is a simple and effective system having only one biological activity. That is, unlike the avian trifunctional GAR TFase, the E. coli species has a sole function. This follows from the genetic evidence of Smith and Daum, J. Biol. Chem., 262, 10565-10569 (1987) as w®11 as the work of Schrimsher et al., Biochemistry, 25, 4366-4371 (1986) who have shown that […] from E. coli is a monofunctional protein, whereas, in chicken it belongs to a trifunctional protein containing, the activates: GAR SYNthase, GAR TFase, and AIR SYNthase.
(§2) The E. coli GAR TFase binding constants for the compounds of the present invention and other folate analogs are shown in Table I below: […]

In data set [2] the target is T1, E. coli GAR TFase. Kind of data set: E. coli GAR TFase inhibition/activity assay (5,8-dideazafolate absorbance at 295 nm). In kind it is biochemical. The method, then:
(§3) All assays were carried out by following the increase of 5,8-dideazafolate absorbence at 295 nm in buffered medium at 26° C. To initiate the reaction, enzyme (1 nM final concentration) was added to a mixture of saturating substrates and variable amounts of inhibitor. A characteristic family of curves was obtained, showing slow, tight-binding inhibition. See, Morrison, Trends Biochem. Sc., 7, 102 (1982) and Morrison, et al., Adv. Enzymology, Relat. Areas Mol. Biol., 57, 201-301 (1987).
as §1
The E. coli GAR TFase binding constants for the compounds of the present invention and other folate analogs are shown in Table I below:
Table II illustrates the specificity of beta-TGDDF for GAR TFase in comparison with other reduced-folate utilizing enzymes. This test, was conducted using the same [I]/[E]ratios as stated previously.

A further data set deals with solid tumors. The following applies: variety of solid tumors in mice; cited from earlier work.
Another data set deals with P388 leukemia. The following applies: in vivo and in vitro; cited from earlier work.
The next data set concerns B-16 melanoma. The following applies: in vivo and in vitro; cited from earlier work.
Data set [3] deals with intracellular pools of ATP and GTP. To be noted: tested against solid tumors in mice; cited from earlier work.
In a further data set the test system is L1210 leukemia. The following applies: in vivo and in vitro; cited from earlier work.
Another data set relates to GAR TFase. To be noted: indirectly shown, solid tumors in mice; cited from earlier work.
The next data set has as its system 6C3HED lymphosarcoma. To be noted: in vivo and in vitro; cited from earlier work.
Another data set concerns X-5563. The following applies: in vivo and in vitro; cited from earlier work.
The next data set concerns HL-60. The following applies: in vivo and in vitro; cited from earlier work.
Substrate in data set [4]: NCC(=O)N[C@@H]1O[C@H](COP(=O)(O)O)[C@@H](O)[C@H]1O
As to the kind of experiment: E. coli GAR TFase inhibition/activity assay (5,8-dideazafolate absorbance at 295 nm). In kind it is biochemical. To be noted: other: Table I, 26.0 °C. The method, then: as §3, §1, §2

Substrate in data set [5]: Nc1nc(O)c2cc(CN(C=O)c3ccc(C(=O)N[C@@H](CCC(=O)O)C(=O)O)cc3)ccc2n1
The description is as above. In kind it is biochemical. The following applies: other: Table I, 26.0 °C. How it is done:
as §3, §1, §2

Read-outs that look alike come from different tables or passages of the source.

For the molecule `Nc1nc2ccc(CN(C(=O)CSCC(=O)N[C@H]3O[C@H](COP(=O)(O)O)[C@@H](O)[C@H]3O)c3ccc(C(=O)N[C@@H](CCC(=O)O)C(=O)O)cc3)cc2c(=O)[nH]1` [alpha-TGDDF], at E. coli GAR TFase [1] (alpha- versus beta-anomer), the “binding affinity for GAR TFase (comparison of anomers)” value is recorded as “lower than the beta-anomer”. Besides, on E. coli GAR TFase [1] (alpha-anomer, read-out: KD), the Kd turned out to be 5.8 nM.
Molecule `Nc1nc2ccc(CNc3ccc(C(=O)N[C@@H](CCC(=O)O)C(=O)O)cc3)cc2c(=O)[nH]1` [DDF, 5,8-dideazafolate, reference compound] yielded a Ki on E. coli GAR TFase [2] of 28100 nM.
For `CN(Cc1cnc2nc(N)nc(N)c2n1)c1ccc(C(=O)N[C@@H](CCC(=O)O)C(=O)O)cc1` [methotrexate], the “Activity against solid tumors” value in the data set on solid tumors was “minimal activity”.
Consider `Nc1nc2ccc(CN(C(=O)CSCC(=O)NC3O[C@H](CO)[C@@H](O)[C@H]3O)c3ccc(C(=O)N[C@@H](CCC(=O)O)C(=O)O)cc3)cc2c(=O)[nH]1` (stereo partly drawn) [alpha,beta-dephospho-TGDDF], for which the inhibition constant Ki at E. coli GAR TFase [2] (Table I, E. coli GAR TFase, read-out: KI) is 1700 nM.
As for `Nc1nc2c(c(=O)[nH]1)CC(CCc1ccc(C(=O)NC(CCC(=O)O)C(=O)O)cc1)CN2` (stereo not shown) [DDATHF], the Anti-tumor activity result in the data set with P388 leukemia, in the data set on B-16 melanoma, with L1210 leukemia, with 6C3HED lymphosarcoma, in the data set on X-5563 and with HL-60 was “anti-tumor,activity” in each case. Moreover, the “Activity against solid tumors” value in the data set on solid tumors is “impressive activity”. Besides, the “Effect on intracellular pools of ATP and GTP” value in [3] was “depletion of intracellular pools of ATP and GTP”. Besides, the “Inhibition of GAR TFase” value with GAR TFase was “indirectly shown to inhibit GAR TFase”.

B1: E. coli GAR TFase (Escherichia coli K-12) (protein)
chain: MNIVVLISGNGSNLQAIIDACKTNKIKGTVRAVFSNKADAFGLERARQAGIATHTLIASAFDSREAYDRELIHEIDMYAPDVVVLAGFMRILSPAFVSHYAGRLLNIHPSLLPKYPGLHTHRQALENGDEEHGTSVHFVTDELDGGPVILQAKVPVFAGDSEDDITARVQTQEHAIYPLVISWFADGRLKMHENAAWLDGQRLPPQGYAADE
notes: made in house; host or cells: E. coli TX393 with multicopy plasmid pJS85, or E. coli TX635 with lambda pL plasmid pJS119 or pJS167
As to B1, the figures for the Michaelis constant (Km) in [4] and in data set [5] were 20 µM and 36 µM, respectively.

A word on the Kd: it is a measure of binding affinity in units of concentration. A word on the Ki: it is the dissociation constant of the complex between target and ligand, obtained from inhibition or displacement. One may read the Km as the substrate concentration at which the rate is half of its maximum.
